Experiment [1] relates to Cryptosporidium parvum. The experiment can be described thus: Cytopathic effect (CPE) based assay, C. parvum infected HCT-8 cells. The note with it: HCT-8 host cell viability (CellTiter-Glo), 48 hours treatment, read-out: Cp CPE EC50. The method, boiled down: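 HCT-8 cells were batch-infected with excysted C. parvum (Iowa isolate) oocysts at MOI 1:2 (host:parasite) for 3 h at 37 °C, then seeded and incubated 24 h before compound addition. Compounds were given as 3-fold dilution series (final DMSO <0.5%). Host-cell loss (cytopathic effect) was read as viability with CellTiter-Glo.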

Experiment [2] concerns Cryptosporidium hominis. In words: Cytopathic effect (CPE) based assay, C. hominis infected HCT-8 cells. The settings on record: HCT-8 host cell viability (CellTiter-Glo), 48 hours treatment, read-out: Ch CPE EC50. How it is done:
(§1) Human ileocecal colorectal adenocarcinoma cells (HCT-8 [HRT-18] ATCC, CCL-34) were maintained in T-175 flasks (Corning, 431080) in complete growth medium (RPMI-1640 medium (Gibco, 11875) supplemented with 10% heat-inactivated horse serum (Gibco, 26050), 1×MEM non-essential amino acids (Gibco, 11140), 10 mM HEPES (Gibco, 15630), 100 units/mL penicillin, and 100 units/mL streptomycin) at 37° C. and 5% CO2 in a humidified incubator. Cultures were passaged twice weekly using 10 mL of 1×Phosphate-Buffered Saline (PBS) without Ca^2+ and Mg^2+ (Gibco, 20012) for washing and 3-5 mL per T-175 flask of TrypLE Express Enzyme (Gibco, 12604) for dissociation of adherent cells.
Cryptosporidium hominis oocysts were purchased from the Tufts University Cummings School of Veterinary Medicine (courtesy of Dr. Saul Tzipori). C. hominis oocysts were purified from infected gnotobiotic piglet feces and stored in PBS solution containing 0.01% Tween-20, 100 units/mL penicillin and 100 units/mL gentamicin. C. parvum and C. hominis oocysts less than three months old from the date of shedding were used in infection experiments.
(§2) Excystation and infection protocols were developed following established methods with some modifications (Gut & Nelson, 1999, Upton et aL, 1995, Bessoff et aL, 2013). Briefly, oocysts were primed in 1 mL of 10 mM hydrochloric acid in 1× Hank's Balanced Salt Solution (HBSS) (Gibco, 14025) for 10 minutes with agitation at 1000 rpm, 37° C. on an Eppendorf thermomixer, then washed twice with 1 mL of room temperature non-acidic 1× HBSS by centrifugation at 13,000 rpm for 3 minutes at 25° C. Primed oocysts were further excysted at a concentration of 1×10^6 oocysts/μL in parasite infection medium consisting of a pre-warmed and pre-gassed 1:1 formulation of Leibovitz's L-15 medium (Gibco, 11415) and UltraCULTURE medium (Lonza, 12-725F) supplemented with 2 mM sodium taurocholate (Sigma, 86339-1), 10% heat-inactivated horse serum, and 200 μM L-ascorbic acid (Sigma, 95210) at 25° C. for 10 minutes. HCT-8 monolayer cells were infected with excysted cryptosporidium at a specified multiplicity of infection (MOI). All dilutions for subsequent assays were performed in parasite infection medium without sodium taurocholate. Pre-excysted oocysts were enumerated microscopically using a C-Chip disposable hemocytometer (NanoEnTek, DHC-N01).
(§3) Compound powders were dissolved in neat DMSO (Fisher, D4121) to 10 mM and stored at 4° C. prior to dilution into source plates. Dilutions were carried out using a Microlab STAR liquid handler (Hamilton) to obtain compound source plates containing the ten-point or eight-point three fold dilutions starting from 10 mM in duplicates. Source plates were stored at 4° C. prior to spotting into assay plates. Before administration, all compound source plates were equilibrated to room temperature. A specified volume of compounds from source plate were spotted to assay plate using an Echo Acoustic liquid handler (LABCYTE, 550) so that the final DMSO concentration was less than 0.5%. Each assay plate a specified number of DMSO-treated negative control wells and a well-studied potent active compound at 100 nM as positive control. As a quality control, all positive and negative-control wells were used to calculate a Z′-value and signal to noise ratio (S:N) for each plate.
Cryptosporidium spp are obligate-intracellular parasites that infect intestinal epithelial cells and the host cell is killed upon parasite egress. […] The loss of epithelial cells is due to both rapid parasite invasion/multiplication/egress and also pro-inflammatory immune response (Adams et al., 1994, Griffiths et al., 1994). We have observed a consistent cytopathic effect (CPE) in HCT-8 cells with C. spp infection the loss of viability of the host cells using CellTiter-Glo reagent.
Confluent HCT-8 cells in T-175 flasks were directly infected with excysted oocysts at an MOI (host to parasite) of 1:2 for C. parvum and 1:4 for C. hominis. […]

Experiment [3] relates to C. parvum. The experiment can be described thus: High content imaging assay, C. parvum infected HCT-8 cells. The class given is cell-based. The note with it: Cryptosporidium parvum, percentage of infected HCT-8 cells, 48 hours treatment, read-out: Cp HCl IC50. How it is done: as §1
Cryptosporidium parvum oocysts purchased from the Sterling Laboratory, University of Arizona (Iowa isolate) were purified from infected calf feces using discontinuous sucrose and cesium chloride centrifugation gradients and stored in PBS solution containing 0.01% Tween 20, 100 units/mL penicillin and 100 units/mL gentamicin.
as §2, §3
Imaging assays were developed following established Cryptosporidium spp labeling and in vitro infection models with some modifications (Bessoff et aL, 2013, Gut & Nelson, 1999). Briefly, 2×10^4 HCT-8 cells per well were seeded into 384-well, flat black clear-bottom OPERA assay plates (Greiner, 789071-G) at 20 μL per well in complete growth medium using a Multidrop Combi liquid handler (ThermoScientific, 5840300) and standard tube dispensing cassette (ThermoScientific, 24072670) and incubated for 24 hours at 37° C. The HCT-8 cells were infected with 10 μL per well of 1×10^4 excysted C. parvum oocysts (host to parasite MOI of 1:0.5) or 10 μL per well of 4×10^4 excysted C. hominis oocysts (MOI 1:2) in parasite infection medium using the Multidrop and incubated at 37° C. […]

As to `CNC(=O)c1ccc(-c2cnn3ccc(C(=O)N(c4ccc(C#N)cn4)C(C)C)cc23)cc1` [Example 91], the EC50 in experiment [1] stood at 129 nM; in experiment [2], 139 nM.

On to `CNC(=O)c1ccc(-c2cnn3ccc(C(=O)N(c4ccc(Cl)cn4)C4CC4)cc23)cc1` [Example 124], for which the EC50 in experiment [1] amounted to 103 nM. For the same compound, the IC50 in experiment [3] worked out at 60 nM.

Regarding `CNC(=O)c1ccc(-c2cnn3ccc(C(=O)N(NC)c4ccc(C#N)cc4)cc23)cn1` [Example 92], the EC50 in experiment [1] came out at 310 nM. Also, the IC50 in experiment [3] was found to be 94 nM.

As for `CCN(C(=O)c1ccn2ncc(-c3ccc(C(=O)NC)nc3)c2c1)c1ccc(C#N)cn1` [Example 150], in experiment [1], the EC50 was found to be 1070 nM. Further, in experiment [3], the IC50 stood at 382 nM.

As for `N#Cc1ccc(N(C(=O)c2ccn3ncc(-c4ccc(C(=O)NC5CC5)cc4)c3c2)C2CC2)nc1` [Example 123], the concentration giving a half-maximal response (EC50) came out at 2990 nM in experiment [1] and 3150 nM in experiment [2].

For `CNC(=O)c1ccc(-c2cnn3ccc(N(C)C(=O)c4ccc(C#N)cn4)cc23)cc1` [Example 94], the EC50 in experiment [1] is 368 nM; in experiment [2] it was 456 nM. Moreover, the IC50 in experiment [3] came out at 123 nM.

On to `CCN(C(=O)c1ccn2ncc(-c3ccc(C(=O)NC)cc3)c2c1)c1ccc(C#N)cn1` [Example 90], for which the EC50 in experiment [1] was found to be 68 nM. Further, the IC50 in experiment [3] was 52 nM.

As to `CCN(C(=O)c1ccn2ncc(-c3ccc(C(=O)NC)cc3)c2c1)c1ccc(C(F)(F)F)cn1` [Example 96], in experiment [1], the EC50 was determined as 50 nM. The IC50 in experiment [3] was 24 nM.

As to `CCNC(=O)c1ccc(-c2cnn3ccc(C(=O)N(c4ccc(C#N)cn4)C4CC4)cc23)cc1` [Example 127], the values for the EC50 in experiment [1] and in experiment [2] were 102 nM and 71 nM, respectively. The IC50 in experiment [3] was found to be 62 nM.

With `CNC(=O)c1ccc(-c2cnn3ccc(C(=O)N(c4ccc(C#N)cn4)C4CCC4)cc23)cc1` [Example 112], the values for the EC50 in experiment [1] and in experiment [2] were 270 nM and 351 nM, respectively.

Turning to `CC(C)NC(=O)c1ccc(-c2cnn3ccc(C(=O)N(c4ccc(C#N)cn4)C4CC4)cc23)cc1` [Example 121], the EC50 in experiment [1] is 8640 nM; in experiment [2], over 20000 nM.

For the compound `CNC(=O)c1ccc(-c2cnn3ccc(C(=O)N(c4ccc(C#N)c(OC)n4)C4CC4)cc23)cc1` [Example 149], in experiment [1], the EC50 stood at 55 nM. For the same compound, the IC50 in experiment [3] came out at 32 nM.

`CNC(=O)c1ccc(-c2cnn3ccc(C(=O)N(c4ccc(C(F)(F)F)cn4)C4CCC4)cc23)cc1` [Example 160]: in experiment [1], the EC50 is 85 nM. Moreover, in experiment [3], the IC50 stood at 29 nM.

On to `N#Cc1ccc(N(C(=O)c2ccn3ncc(-c4ccc(C(N)=O)cc4)c3c2)C2CC2)nc1` [Example 120], for which the figures for the EC50 in experiment [1] and in experiment [2] were 172 nM and 276 nM, respectively.

On to `CNC(=O)c1ccc(-c2cnn3ccc(C(=O)N(c4ccc(C(F)(F)F)cn4)C(C)C)cc23)cc1` [Example 153], for which the EC50 in experiment [1] came to 39 nM; in experiment [2], 70 nM. In experiment [3], the IC50 came out at 11 nM.

Take `N#Cc1ccc(N(C(=O)c2ccn3ncc(-c4ccc(C(=O)NC5COC5)cc4)c3c2)C2CC2)nc1` [Example 131]: the EC50 in experiment [1] was 2730 nM; in experiment [2] it was 4110 nM.

The values are drawn from patent US20190030009A1, “COMPOUNDS AND COMPOSITIONS FOR THE TREATMENT OF CRYPTOSPORIDIOSIS” (Novartis AG, priority 2016, published 2019).
